The subject of test [1] is TNFα production in LPS-stimulated human monocytes. Description: Cot Monocyte TNFα Cell Based Assay. As to conditions: Homo sapiens, Monocyte, TNFα in LPS-stimulated human monocytes; read-out: EC50 TNF. Summed up:
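TR-FRET read-out of total secreted TNFα, normalized as % control (unstimulated = 0%, LPS-stimulated = 100%). Cells (5,000/well) were exposed to compound 1 h at 37 °C, then to 50 pg/ml LPS for a further 4 h.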

Test [2] addresses T1, human Cot catalytic domain (30-397 amino acids) (Homo sapiens, UniProt P41279).
T1 construct: Purified recombinant human Cot catalytic domain (30-397 amino acids) was purchased from Cama Biosciences; purchased Cama Biosciences (so in the source)
Briefly: High Throughput Cot Biochemical Assay (KinEASE TR-FRET). As to conditions: Cot KinEASE TR-FRET (HTRF) biochemical assay, 400 μM ATP; read-out: IC50 HTRF. Summed up: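 TR-FRET readout: Eu-labeled phospho-specific antibody binds XL665-tagged STK3 peptide after phosphorylation by Cot (aa 30-397, 5 nM). Conditions: 400 μM ATP, 1 μM peptide, MOPS pH 7.0 buffer with MgOAc, DTT, BSA, NP-40, glycerol; 0.1% DMSO.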

pEC50, pIC50: −log10 of the molar value.

Our source for the EC50 and IC50 values is patent US10316017B2, “COT modulators and methods of use thereof” (Gilead Sciences, Inc., priority 2015, dated 2019).

In general, pEC50 refers to the negative decadic logarithm of the EC50, by convention in mol/L. Usually pIC50 stands for −log10 of the IC50, conventionally taken in molar units.

T1 sequence (P41279 30-397): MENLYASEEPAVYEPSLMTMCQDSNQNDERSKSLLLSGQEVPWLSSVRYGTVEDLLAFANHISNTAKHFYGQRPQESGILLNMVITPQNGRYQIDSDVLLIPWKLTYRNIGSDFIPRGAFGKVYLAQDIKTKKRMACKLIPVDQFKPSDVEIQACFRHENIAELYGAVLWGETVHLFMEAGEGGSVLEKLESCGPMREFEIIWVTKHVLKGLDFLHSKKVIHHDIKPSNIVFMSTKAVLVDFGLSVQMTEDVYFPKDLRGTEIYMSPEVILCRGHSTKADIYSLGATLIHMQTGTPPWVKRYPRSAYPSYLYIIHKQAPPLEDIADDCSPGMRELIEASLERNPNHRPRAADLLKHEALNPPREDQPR

With `N#Cc1cnc2c(Cl)cc(N[C@@H](c3ccc(F)cc3)c3cn(C(F)F)nn3)cc2c1Nc1cnc(F)c(F)c1` [Example 377, (S)-8-chloro-6-(((1-(difluoromethyl)-1H-1,2,3-triazol-4-yl)(4-fluorophenyl)methyl)amino)-4-((5,6-difluoropyridin-3-yl)amino)quinoline-3-carbonitrile], the pEC50 in test [1] is under 5.00. Besides, in test [2], the negative logarithm of the IC50 (pIC50) was 6.31.

`N#Cc1cnc2c(Cl)cc(N[C@@H](c3ccc(F)cc3)c3cnn(C(F)F)n3)cc2c1Nc1cnc(F)c(F)c1` [Example 378, (S)-8-chloro-6-(((2-(difluoromethyl)-2H-1,2,3-triazol-4-yl)(4-fluorophenyl)methyl)amino)-4-((5,6-difluoropyridin-3-yl)amino)quinoline-3-carbonitrile]: the pEC50 in test [1] is under 5.00. Further, in test [2], the negative logarithm of the IC50 (pIC50) is under 5.00.

`CC[C@@H](Nc1c(C#N)cnc2c(Cl)cc(N[C@@H](c3ccc(F)cc3)c3cn(C4(C(F)(F)F)CC4)nn3)cc12)c1ccccc1` [Example 379, 8-chloro-6-(((S)-(4-fluorophenyl)(1-(1-(trifluoromethyl)cyclopropyl)-1H-1,2,3-triazo1-4-yl)methyl)amino)-4-(((R)-1-phenylpropyl)amino)quinoline-3-carbonitrile]: the pEC50 in test [1] is 6.72. The pIC50 in test [2] is 7.52.

As for `N#Cc1cnc2c(Cl)cc(N[C@@H](c3ccc(F)cc3)c3cn(C4CCOCC4)nn3)cc2c1Nc1cnc(F)c(F)c1` [Example 380, (S)-8-chloro-4-((5,6-difluoropyridin-3-yl)amino)-6-(((4-fluorophenyl) (1-(tetrahydro-2H-pyran-4-yl)-1H-1,2,3-triazol-4-yl)methyl)amino)quinoline-3-carbonitrile], the pEC50 in test [1] was 5.89. Moreover, the pIC50 in test [2] was 7.11.

For `[2H][C@](Nc1cc(Cl)c2ncc(C#N)c(Nc3cnc(F)c(F)c3)c2c1)(c1ccc(F)cc1)c1cn(C(C)(C)C)nn1` [Example 381, (S)-6-(((1-(tert-butyl)-1H-1,2,3-triazol-4-yl)(4-fluorophenyl)methyl-d)amino)-8-chloro-4-((5,6-difluoropyridin-3-yl)amino)quinoline-3-carbonitrile], the pEC50 in test [1] is 6.19. Further, in test [2], the pIC50 was 7.36.

As for `[2H][C@](Nc1cc(Cl)c2ncc(C#N)c(Nc3cnc(F)c(F)c3)c2c1)(c1ccc(F)cc1)c1cn(C2CC2)nn1` [Example 382, (S)-8-chloro-6-(((1-cyclopropyl-1H-1,2,3-triazol-4-yl)(4-fluorophenyl)methyl-d)amino)-4-((5,6-difluoropyridin-3-yl)amino)quinoline-3-carbonitrile], the negative-log EC50 (pEC50) in test [1] is 6.49. Further, the pIC50 in test [2] was 8.10.

`CC(C)n1cc([C@@H](Nc2cc(Cl)c3ncc(C#N)c(Nc4ccc(F)c(Cl)c4)c3c2)c2cccc(S(=O)(=O)N(C)C)c2)nn1` [Example 383, (S)-3-(((8-chloro-4-((3-chloro-4-fluorophenyl)amino)-3-cyanoquinolin-6-yl)amino)(1-isopropyl-1H-1,2,3-triazol-4-yl)methyl)-N,N-dimethylbenzenesulfonamide]: the pEC50 in test [1] is 6.83. For the same compound, the pIC50 in test [2] was 7.96.

`N#Cc1cnc2c(Cl)cc(N[C@@H](c3ccc(F)cc3)c3cn(CC4(O)CC4)nn3)cc2c1Nc1cnc(F)c(F)c1` [Example 384, (S)-8-chloro-4-((5,6-difluoropyridin-3-yl)amino)-6-(((4-fluorophenyl)(1-((1-hydroxycyclopropyl)methyl)-1H-1,2,3-triazol-4-yl)methyl)amino)quinoline-3-carbonitrile]: the pEC50 in test [1] is 6.08. In test [2], the pIC50 is 8.10.

For the compound `CC(C)n1cc([C@@H](Nc2cc(Cl)c3ncc(C#N)c(Nc4cnc(F)c(F)c4)c3c2)c2cccc(-c3nccn3C)c2)nn1` [Example 385, (S)-8-chloro-4-((5,6-difluoropyridin-3-yl)amino)-6-(((1-isopropyl-1H-1,2,3-triazol-4-yl)(3-(1-methyl-1H-imidazol-2-yl)phenyl)methyl)amino) quinoline-3-carbonitrile], the negative logarithm of the EC50 (pEC50) in test [1] was 6.16. Besides, in test [2], the pIC50 is 8.40.

On to `Cn1ccnc1-c1cccc([C@H](Nc2cc(Cl)c3ncc(C#N)c(Nc4cnc(F)c(F)c4)c3c2)c2c[nH]nn2)c1` [Example 386, (S)-8-chloro-4-((5,6-difluoropyridin-3-yl)amino)-6-(((3-(1-methyl-1H-imidazol-2-yl)phenyl)(1H-1,2,3-triazol-4-yl)methyl)amino)quinoline-3-carbonitrile], for which the pEC50 in test [1] was 5.84. Moreover, in test [2], the pIC50 was 8.30.

As for `[2H][C@](Nc1cc(Cl)c2ncc(C#N)c(Nc3cnc(F)c(F)c3)c2c1)(c1ccc(Cl)cc1)c1c[nH]nn1` [Example 387, (S)-8-chloro-6-(((4-chlorophenyl)(1H-1,2,3-triazol-4-yl)methyl-d)amino)-4-((5,6-difluoropyridin-3-yl)amino)quinoline-3-carbonitrile], the pEC50 in test [1] was 6.09. Besides, the pIC50 in test [2] is 7.30.

Take `N#Cc1cnc2c(Cl)cc(N[C@@H](c3ccc(F)cc3)c3cn(-c4ccncc4)nn3)cc2c1Nc1cnc(F)c(F)c1` [Example 388, (S)-8-chloro-4-((5,6-difluoropyridin-3-yl)amino)-6-(((4-fluorophenyl)(1-(pyridin-4-yl)-1H-1,2,3-triazol-4-yl)methyl)amino)quinoline-3-carbonitrile]: in test [1], the pEC50 was 5.90. Also, the pIC50 in test [2] is 7.08.

Regarding `N#Cc1cnc2c(Cl)cc(N[C@@H](c3ccc(F)cc3)c3cn(-c4cccnc4)nn3)cc2c1Nc1cnc(F)c(F)c1` [Example 389, (S)-8-chloro-4-((5,6-difluoropyridin-3-yl)amino)-6-(((4-fluorophenyl) (1-(pyridin-3-yl)-1H-1,2,3-triazol-4-yl)methyl)amino)quinoline-3-carbonitrile], in test [1], the pEC50 is 6.09. Further, the pIC50 in test [2] is 7.43.

With `CC[C@@H](Nc1c(C#N)cnc2c(Cl)cc(N[C@@H](c3ccc(F)cc3)c3cn(-c4ccncc4)nn3)cc12)c1ccccc1` [Example 390, 8-chloro-6-(((S)-(4-fluorophenyl)(1-(pyridin-4-yl)-1H-1,2,3-triazol-4-yl)methyl)amino)-4-(((R)-1-phenylpropyl)amino)quinoline-3-carbonitrile], the pEC50 in test [1] was 6.50. In addition, the pIC50 in test [2] is 7.52.

As to `CC[C@@H](Nc1c(C#N)cnc2c(Cl)cc(N[C@@H](c3ccc(F)cc3)c3cn(-c4cccnc4)nn3)cc12)c1ccccc1` [Example 391, 8-chloro-6-(((S)-(4-fluorophenyl)(1-(pyridin-3-yl)-1H-1,2,3-triazol-4-yl)methyl)amino)-4-(((R)-1-phenylpropyl)amino)quinoline-3-carbonitrile], the pEC50 in test [1] was 6.67. In test [2], the pIC50 is 7.77.

For the compound `CC(C)(C)CNc1c(C#N)cnc2c(Cl)cc(N[C@@H](c3ccc(F)cc3)c3cn(-c4ccncc4)nn3)cc12` [Example 393, (S)-8-chloro-6-(((4-fluorophenyl)(1-(pyridin-4-yl)-1H-1,2,3-triazol-4-yl)methyl)amino)-4-(neopentylamino)quinoline-3-carbonitrile], the pEC50 in test [1] is 6.48. Further, the pIC50 in test [2] was 6.75.

In the case of `CC(C)(C)CNc1c(C#N)cnc2c(Cl)cc(N[C@@H](c3ccc(F)cc3)c3cn(-c4cccnc4)nn3)cc12` [Example 394, (S)-8-chloro-6-(((4-fluorophenyl)(1-(pyridin-3-yl)-1H-1,2,3-triazol-4-yl)methyl)amino)-4-(neopentylamino)quinoline-3-carbonitrile], the pEC50 in test [1] is 6.80. In test [2], the pIC50 is 7.44.

`CC(C)(C)CNc1c(C#N)cnc2c(Cl)cc(N[C@@H](c3ccc(F)cc3)c3cn(-c4ccccc4)nn3)cc12` [Example 395, (S)-8-chloro-6-(((4-fluorophenyl)(1-phenyl-1H-1,2,3-triazol-4-yl)methyl)amino)-4-(neopentylamino)quinoline-3-carbonitrile]: the pEC50 in test [1] is 6.56. Besides, the pIC50 in test [2] is 7.33.

For the compound `CCC(Nc1c(C#N)cnc2c(Cl)cc(N[C@@H](c3ccc(F)cc3)c3c[nH]nn3)cc12)c1ccccc1F` (stereo partly drawn) [Example 397, 8-chloro-6-(((S)-(4-fluorophenyl)(1H-1,2,3-triazol-4-yl)methyl)amino)-4-((1-(2-fluorophenyl)propyl)amino) quinoline-3-carbonitrile], the pEC50 in test [1] was 6.14. Further, the pIC50 in test [2] was 6.90.

On to `CC1(CNc2c(C#N)cnc3c(Cl)cc(N[C@@H](c4ccc(F)cc4)c4c[nH]nn4)cc23)CCOCC1` [Example 398, (S)-8-chloro-6-(((4-fluorophenyl)(1H-1,2,3-triazol-4-yl)methyl)amino)-4-(((4-methyltetrahydro-2H-pyran-4-yl)methyl)amino)quinoline-3-carbonitrile], for which the pEC50 in test [1] is 5.98. The pIC50 in test [2] is 7.55.

`CC(C)C(C)(C)CNc1c(C#N)cnc2c(Cl)cc(N[C@@H](c3ccc(F)cc3)c3c[nH]nn3)cc12` [Example 399, (S)-8-chloro-6-(((4-fluorophenyl)(1H-1,2,3-triazol-4-yl)methyl)amino)-4-((2,2,3-trimethylbutyl)amino) quinoline-3-carbonitrile]: in test [1], the pEC50 was 6.05. Moreover, in test [2], the pIC50 was 7.42.

Consider `CC(C)(C)CNc1c(C#N)cnc2c(Cl)cc(N[C@@H](c3ccc(F)cc3)c3c[nH]nn3)cc12` [Example 400, (S)-8-chloro-6-(((4-fluorophenyl)(1H-1,2,3-triazol-4-yl)methyl)amino)-4-(neopentylamino) quinoline-3-carbonitrile], for which, in test [1], the pEC50 is 5.91. Further, the pIC50 in test [2] was 7.33.
